According to patent US20230414778A1, “COMBINATION OF ANTIBODY-DRUG CONJUGATE WITH ANTI-SIRPalpha ANTIBODY” (DAIICHI SANKYO COMPANY, LIMITED, priority 2020, published 2023):

Experiments:
[1] = target: T1, Topoisomerase I (Homo sapiens, UniProt P11387); settings: Ogitani Y. et al., Clinical Cancer Research 2016; cited from earlier work
T1 sequence (P11387 1-765): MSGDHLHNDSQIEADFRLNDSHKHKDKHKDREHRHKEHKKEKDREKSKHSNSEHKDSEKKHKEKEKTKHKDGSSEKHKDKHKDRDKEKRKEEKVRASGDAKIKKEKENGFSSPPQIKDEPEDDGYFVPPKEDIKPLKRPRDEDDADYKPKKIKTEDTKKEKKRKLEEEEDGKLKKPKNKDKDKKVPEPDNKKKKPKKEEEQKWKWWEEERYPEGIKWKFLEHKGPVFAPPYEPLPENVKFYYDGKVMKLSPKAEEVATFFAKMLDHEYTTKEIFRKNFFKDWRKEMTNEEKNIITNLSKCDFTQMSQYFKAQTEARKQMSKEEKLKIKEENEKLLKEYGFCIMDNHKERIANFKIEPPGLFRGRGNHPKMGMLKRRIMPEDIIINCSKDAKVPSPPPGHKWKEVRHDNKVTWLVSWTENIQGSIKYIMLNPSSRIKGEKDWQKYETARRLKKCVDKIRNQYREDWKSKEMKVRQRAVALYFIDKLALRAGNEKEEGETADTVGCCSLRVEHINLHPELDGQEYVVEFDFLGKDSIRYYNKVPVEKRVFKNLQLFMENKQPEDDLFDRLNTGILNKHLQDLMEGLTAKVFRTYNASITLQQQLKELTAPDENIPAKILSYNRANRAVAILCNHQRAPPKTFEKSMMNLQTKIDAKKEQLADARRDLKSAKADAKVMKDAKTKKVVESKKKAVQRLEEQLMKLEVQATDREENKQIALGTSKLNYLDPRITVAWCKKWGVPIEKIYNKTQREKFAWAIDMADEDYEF

[2] = system: CT26.WT-reactive T cells in mouse spleen cells; test: ELISPOT analysis of IFNγ-producing spleen cells; type: in vivo
Procedure: The number of CT26.WT-reactive T cells in mouse spleen cells was determined by Murine IFNγ Single-Color Enzymatic ELISPOT Assay (manufactured by […] TECHNOLOGY LIMITED), more specifically, counting of the number of IFNγ spots produced from individual spleen cells. From each of the mice used in Example 3, the spleen was harvested and the number of spleen cells was adjusted to be 1.0×10^6 cells/mL by use of CTL test medium. CT26.WT cells were treated with 10 μg/mL mitomycin C for 2 hours and washed. Thereafter, the cells were collected, adjusted to be 1.0×10^6 cells/mL by CTL test medium, and used as an antigen. The spleen cells and the antigen were added each in an amount of 100 μL/well in a PVDF-membrane plate pre-coated with an anti-IFNγ antibody and co-cultured at 37° C. for 24 hours. Thereafter, the color was developed using the attached antibody and coloring reagent and the number of IFNγ-producing spleen cells was determined. Comparison between the NCD cell inoculation group and compound (A) or MTX treatment group was made in accordance with the Wilcoxon rank sum test. P value was expressed to four decimal places and the results satisfying P<0.05 (two-sided test) were determined as being significant.

[3] = system: cells treated with compound (A); settings: Clin. Invest. 2020: 130(1): 374-388; cited from earlier work
[4] = drug-treated CT26.WT cells inoculated, anti-SIRPα antibody (5C12) administration

CC[C@@]1(O)C(=O)OCc2c1cc1n(c2=O)Cc2c-1nc1cc(F)c(C)c3c1c2[C@@H](NC(=O)CO)CC3 [compound (A)]
topoisomerase I inhibitory effect [1]: TpoI inhibitor
antigen specific T cell induction compared to the MTX treatment group ([2]; ELISPOT, spleen cells): tendency to further enhance
number of IFNγ-producing spleen cells compared to NCD_PBS ([2]; drug-treated CT26.WT cells inoculated, PBS administration): tendency to increase
number of IFNγ-producing spleen cells compared to NCD_PBS [2, 4]: significantly increased
number of IFNγ-producing spleen cells compared to compound (A) PBS group [2, 4]: significantly increased
HMGB1 release from treated cells [3]: released
